Test results published in US5493024A, “3,4,N-trisubstituted-4,5-dihydro-1H-pyrazole-1-carboxamides and their use as insectioides” (DowElanco, priority 1993, dated 1996).
Values after ≈ are worked out from the molar mass of the structure shown.

Columns and labels:
beet armyworm [1] = experiment: Effect on beet armyworm, contact and ingestion test (treated cotton leaf discs); format: in vivo, S. exigua (beet armyworm); details: second-instar larvae, sprayed cotton leaf discs, 5 days at 25° C; for LC50: Spodoptera exigua, foliar, 120 h, read-out: BEET ARMYWORM Contact and Ingestion Test LC50, ppm
Procedure: (§1) Effect on Tobacco Budworm and Beet Armyworm by Leaf Ingestion and/or Contact.
(§2) Stock solutions of the compounds to be tested having a known concentration were prepared by dissolving weighed amounts in a 90:10 mixture of high-purity acetone and ethanol and these solutions were diluted with distilled water (containing 0.05 percent by weight Tween 20™ surfactant) to obtain the spray solutions of known concentration employed. Greenhouse-grown cotton leaves of uniform age were cut into 2.5 cm diameter discs and one disc was placed in the bottom of each of a number of 30 mL plastic cups. The cups were then sprayed by means of a track sprayer applying 0.055 mL of spray solution per cup. The leaf discs were allowed to dry and then a single second-instar H. virescens (tobacco budworm) or S. exigua (beet armyworm) larva was added to each cup and each cup was capped with a perforated plastic lid. Ten cups were prepared for each insect species and each application rate and five applications rates were usually run. Treated cups were stored for 5 days at 25° C. and were then graded for mortality. Untreated controls and positive controls (cypermethrin) were run simultaneously. The amount of test chemical required to kill half of the larvae (LD50) was calculated.

beet armyworm [2] = experiment: Effect on beet armyworm, contact test (treated Teflon discs); format: in vivo, S. exigua (beet armyworm); details: second-instar larvae, sprayed Teflon discs 24 hours, then 5 more days on untreated leaf, 25° C; for LC50: Spodoptera exigua, 144 h, read-out: BEET ARMYWORM Contact Test LC50, ppm
Procedure: (§3) Effect on Tobacco Budworm and Beet Armyworm by Contact.
(§4) Stock solutions of the compounds to be tested having a known concentration were prepared by dissolving weighed amounts in a 90:10 mixture of high-purity acetone and ethanol and these solutions were diluted with distilled water (containing 0.05 percent by weight Tween 20™ surfactant) to obtain the spray solutions of known concentration employed. Teflon™ discs 5 cm in diameter were placed in plastic petri dishes of slightly larger diameter and these dishes were sprayed by means of a track sprayer applying 0.104 mL of spray solution per cup. The Teflon™ discs were allowed to dry, a single second-instar H. virescens (tobacco budworm) or S. exigua (beet armyworm) larva was placed on each Teflon™ disc, and each disc was capped with a plastic lid. Ten Teflon™ discs were prepared for each application rate and five application rates were usually run. Treated discs were stored for 24 hours at 25° C. and then the Teflon™ disc was removed and replaced with an untreated cotton leaf disc. After 5 more days of storage at 25 ° C. the dishes were graded for mortality. Untreated controls and positive controls (cypermethrin) were run simultaneously. The amount of test chemical required to kill half of the larvae (LD50) was calculated.

tobacco budworm [3] = experiment: Effect on tobacco budworm, contact test (treated Teflon discs); format: in vivo, H. virescens (tobacco budworm); details: second-instar larvae, sprayed Teflon discs 24 hours, then 5 more days on untreated leaf, 25° C; for LC50: Heliothis virescens, 144 h, read-out: TOBACCO BUDWORM Contact Test LC50, ppm
Procedure: as §3, §4

tobacco budworm [4] = experiment: Effect on tobacco budworm, contact and ingestion test (treated cotton leaf discs); format: in vivo, H. virescens (tobacco budworm); details: second-instar larvae, sprayed cotton leaf discs, 5 days at 25° C; for LC50: Heliothis virescens, foliar, 120 h, read-out: TOBACCO BUDWORM Contact and Ingestion Test LC50, ppm
Procedure: as §1, §2

Molecule: 4,5-Dihydro-3-(4-fluorophenyl)-4-(4-fluoro-5-trifluoromethyl-2-pyridinyl)- N-(4-trifluoromethoxyphenyl)-1H-pyrazole-1-carboxamide
- BEET ARMYWORM Contact and Ingestion Test LC50, ppm (beet armyworm [1]): 5.2 ppm
- BEET ARMYWORM Contact Test LC50, ppm (beet armyworm [2]; 8640 min): 7.6 ppm
- TOBACCO BUDWORM Contact Test LC50, ppm (tobacco budworm [3]; 8640 min): 80 ppm
- TOBACCO BUDWORM Contact and Ingestion Test LC50, ppm (tobacco budworm [4]): 10.0 ppm

Molecule: O=C(Nc1ccc(C(F)(F)F)cc1)N1CC(c2ccc(Cl)nn2)C(c2ccc(Cl)cc2)=N1 (centres unmarked) [AA, 4-(6-Chloro-3-pyridazinyl)-3-(4-chlorophenyl)-4,5-dihydro-N-(4-trifluoromethylphenyl)-1H-pyrazole-1-carboxamide]
- LC50 (beet armyworm [1]): 20.3 µg/mL (≈ 42.3 µM)
- LC50 (beet armyworm [2]): 11.7 µg/mL (≈ 24.4 µM)

Molecule: O=C(Nc1ccc(C(F)(F)F)cc1)N1CC(c2ccc(C(F)(F)F)cn2)C(c2ccc(Cl)cc2)=N1 (centres unmarked) [B, 3-(4-Chorophenyl)-4,5-dihydro-N-(4-trifluoromethylphenyl)-4-(5-trifluoromethyl-2-pyridinyl)-1H-pyrazole-1-carboxamide]
- LC50 (beet armyworm [1]): 10 µg/mL (≈ 19.5 µM)
- LC50 (beet armyworm [2]): > 80 µg/mL
- LC50 (tobacco budworm [3]): > 80 µg/mL
- LC50 (tobacco budworm [4]): 7.6 µg/mL (≈ 14.8 µM)

Molecule: O=C(Nc1ccc(OC(F)(F)F)cc1)N1CC(c2ccc(C(F)(F)F)cn2)C(c2ccc(Cl)cc2)=N1 (centres unmarked) [C, 3-(4-Chlorophenyl)-4,5-dihydro-N-(4-trifluoromethoxyphenyl)-4-(5-trifluoromethyl-2-pyridinyl)-1H-pyrazole-1-carboxamide]
- LC50 (beet armyworm [1]): 7.9 µg/mL (≈ 14.9 µM)
- LC50 (tobacco budworm [4]): 9.1 µg/mL (≈ 17.2 µM)

Molecule: CSc1ccc(NC(=O)N2CC(c3ccc(C(F)(F)F)cn3)C(c3ccc(Cl)cc3)=N2)cc1 (centres unmarked) [Compound A, 3-(4-Chlorophenyl)-4,5-dihydro-N-(4-(methylthio)phenyl)-4-(5-trifluoromethyl-2-pyridinyl)-1H-pyrazole-1-carboxamide]
- LC50 (beet armyworm [1]): 107 µg/mL (≈ 218 µM)
- LC50 (tobacco budworm [4]): > 400 µg/mL

Molecule: O=C(Nc1ccc(Cl)cc1)N1CC(c2ccc(C(F)(F)F)cn2)C(c2ccc(Cl)cc2)=N1 (centres unmarked) [D, 3-(4-Chlorophenyl)-N-(4-chlorophenyl)-4,5-dihydro-4-(5-trifluoromethyl-2-pyridinyl)-1H-pyrazole-1-carboxamide]
- LC50 (beet armyworm [1]): 1.8 µg/mL (≈ 3.76 µM)
- LC50 (beet armyworm [2]): 12.6 µg/mL (≈ 26.3 µM)
- LC50 (tobacco budworm [3]): 35.6 µg/mL (≈ 74.3 µM)
- LC50 (tobacco budworm [4]): 2.1 µg/mL (≈ 4.38 µM)

Molecule: O=C(Nc1ccc(OC(F)(F)F)cc1)N1CC(c2cccc(F)n2)C(c2ccc(F)cc2)=N1 (centres unmarked) [E, 4,5-Dihydro-3-(4-fluorophenyl)-4-(6-fluoro-2-pyridinyl)-N-(4-trifluoromethoxyphenyl)-1H-pyrazole-1-carboxamide]
- LC50 (beet armyworm [1]): 13.6 µg/mL (≈ 29.4 µM)
- LC50 (tobacco budworm [4]): 70.7 µg/mL (≈ 153 µM)

Molecule: O=C(Nc1ccc(Cl)cc1)N1CC(c2cccc(F)n2)C(c2ccc(F)cc2)=N1 (centres unmarked) [F, N-(4-Chlorophenyl)-4,5-dihydro-3-(4-fluorophenyl)-4-(6-fluoro-2-pyridinyl)-1H-pyrazole-1-carboxamide]
- LC50 (beet armyworm [1]): > 800 µg/mL
- LC50 (tobacco budworm [4]): 606 µg/mL (≈ 1470 µM)

Molecule: O=C(Nc1ccc(OC(F)(F)F)cc1)N1CC(c2ccc(C(F)(F)F)cn2)C(c2ccc(F)cc2)=N1 (centres unmarked) [H, 4,5-Dihydro-3-(4-fluorophenyl)-N-(4-trifluoromethoxyphenyl)-4-(5-trifluoromethyl-2-pyridinyl)-1H-pyrazole-1-carboxamide]
- LC50 (beet armyworm [1]): 1.3 µg/mL (≈ 2.54 µM)
- LC50 (beet armyworm [2]): < 5 µg/mL
- LC50 (tobacco budworm [3]): 23.3 µg/mL (≈ 45.5 µM)
- LC50 (tobacco budworm [4]): 2.3 µg/mL (≈ 4.49 µM)

Molecule: O=C(Nc1ccc(Cl)cc1)N1CC(c2ccc(C(F)(F)F)cn2)C(c2ccc(F)cc2)=N1 (centres unmarked) [I, N-(4-Chlorophenyl)-4,5-dihydro-3-(4-fluorophenyl)-4-(5-trifluoromethyl-2-pyridinyl)-1H-pyrazole-1-carboxamide]
- LC50 (beet armyworm [1]): 2.1 µg/mL (≈ 4.54 µM)
- LC50 (beet armyworm [2]): < 5 µg/mL
- LC50 (tobacco budworm [3]): 49.7 µg/mL (≈ 107 µM)
- LC50 (tobacco budworm [4]): 1.3 µg/mL (≈ 2.81 µM)

Molecule: O=C(Nc1ccc(OC(F)(F)F)cc1)N1CC(c2cncnc2)C(c2ccccc2)=N1 (centres unmarked) [J, 4,5-Dihydro-3-phenyl-4-(5-pyrimidinyl),N-(4-trifluoromethoxyphenyl)-1H-pyrazole-1-carboxamide]
- LC50 (beet armyworm [1]): > 800 µg/mL
- LC50 (tobacco budworm [4]): 135 µg/mL (≈ 316 µM)

Molecule: O=C(Nc1ccc(OC(F)(F)F)cc1)N1CC(c2cnc3ccc(Cl)cc3c2)C(c2ccccc2)=N1 (centres unmarked) [K, 4-(6-Chloro-3-quinolinyl)-4,5-dihydro-3-phenyl-N-(4-trifluoromethoxyphenyl)-1H-pyrazole-1-carboxamide]
- LC50 (beet armyworm [1]): 29.7 µg/mL (≈ 58.1 µM)
- LC50 (tobacco budworm [4]): 70.7 µg/mL (≈ 138 µM)

Molecule: O=C(Nc1ccc(SC(F)(F)F)cc1)N1CC(c2ccc(C(F)(F)F)cn2)C(c2ccc(F)cc2)=N1 (centres unmarked) [L, 4,5-Dihydro-3-(4-fluorophenyl)-4-(5-trifluoromethyl-2-pyridinyl)-N-((4-trifluoromethylthio)phenyl)-1H-pyrazol-1-carboxamide]
- LC50 (beet armyworm [1]): 7.9 µg/mL (≈ 14.9 µM)
- LC50 (beet armyworm [2]): > 80 µg/mL
- LC50 (tobacco budworm [3]): 63.5 µg/mL (≈ 120 µM)
- LC50 (tobacco budworm [4]): 4.2 µg/mL (≈ 7.95 µM)

Molecule: O=C(Nc1ccc(OC(F)(F)F)cc1)N1CC(c2ccc3cc(Cl)ccc3n2)C(c2ccc(Cl)cc2)=N1 (centres unmarked) [O, 3-(4-Chlorophenyl)-4-(6-chloro-2-quinolinyl)-4,5-dihydro-N-(4-trifluoromethoxyphenyl)-1H-pyrazole-1-carboxamide]
- LC50 (beet armyworm [1]): > 200 µg/mL
- LC50 (tobacco budworm [4]): > 200 µg/mL

Molecule: O=C(Nc1ccc(OC(F)(F)F)cc1)N1CC(c2ccc3ccc(Cl)cc3n2)C(c2ccc(Cl)cc2)=N1 (centres unmarked) [P, 3-(4-Chlorophenyl)-4-(7-chloro-2-quinolinyl)-4,5-dihydro-N-(4-trifluoromethoxyphenyl)-1H-pyrazole-1-carboxamide]
- LC50 (beet armyworm [1]): 40.6 µg/mL (≈ 74.4 µM)
- LC50 (tobacco budworm [4]): 64.8 µg/mL (≈ 119 µM)

Molecule: O=C(Nc1ccc(OC(F)(F)F)cc1)N1CC(c2cnc3cc(Cl)ccc3c2)C(c2ccccc2)=N1 (centres unmarked) [Q, 4-(7-Chloro-3-quinolinyl)-4,5-dihydro-3-phenyl-N-(4-trifluoromethoxyphenyl)-1H-pyrazole-1-carboxamide]
- LC50 (beet armyworm [1]): 13.4 µg/mL (≈ 26.2 µM)
- LC50 (tobacco budworm [4]): 30.8 µg/mL (≈ 60.3 µM)

Molecule: O=C(Nc1ccc(OC(F)(F)F)cc1)N1CC(c2cccnc2)C(c2ccccc2)=N1 (centres unmarked) [R, 4,5-Dihydro-3-phenyl-4-(3-pyridinyl)-N-(4-trifluoromethoxyphenyl)-1H-pyrazole-1-carboxamide]
- LC50 (beet armyworm [1]): > 400 µg/mL
- LC50 (tobacco budworm [4]): 186 µg/mL (≈ 436 µM)

Molecule: O=C(Nc1ccc(OC(F)(F)F)cc1)N1CC(c2cncnc2)C(c2ccc(F)cc2)=N1 (centres unmarked) [S, 4,5-Dihydro-3-(4-fluorophenyl)-4-(5-pyrimidinyl)-N-(4-trifluoromethoxyphenyl)-1H-pyrazole-1-carboxamide]
- LC50 (beet armyworm [1]): 490 µg/mL (≈ 1100 µM)
- LC50 (tobacco budworm [4]): 50 µg/mL (≈ 112 µM)

Molecule: O=C(Nc1ccc(OC(F)(F)F)cc1)N1CC(c2cc(C(F)(F)F)nc(C(F)(F)F)c2)C(c2ccccc2)=N1 (centres unmarked) [U, 4,5-Dihydro-4-(2,6-di(trifluoromethyl)-4-pyridinyl)-3-phenyl-N-(4-trifluoromethoxyphenyl)-1H-pyrazole-1-carboxamide]
- LC50 (beet armyworm [1]): 37.9 µg/mL (≈ 67.4 µM)
- LC50 (beet armyworm [2]): > 100 µg/mL

Molecule: O=C(Nc1ccc(OC(F)(F)F)cc1)N1CC(c2cnc(C(F)(F)F)nc2)C(c2ccc(F)cc2)=N1 (centres unmarked) [W, 4,5-Dihydro-3-(4-fluorophenyl)-N-(4-trifluoromethoxyphenyl)-4-(2-trifluoromethyl-5-pyrimidinyl)-1-H-pyrazole-1-carboxamide]
- LC50 (beet armyworm [1]): 7.5 µg/mL (≈ 14.6 µM)
- LC50 (tobacco budworm [4]): 6.1 µg/mL (≈ 11.9 µM)

Molecule: O=C(Nc1ccc(C(F)(F)F)cc1)N1CC(c2cnc(C(F)(F)F)cn2)C(c2ccc(F)cc2)=N1 (centres unmarked) [Y, 4,5-Dihydro-3-(4-fluorophenyl)-N-(4-trifluoromethylphenyl)-4-(5-trifluoromethyl-2-pyrazinyl)-1H-pyrazole-1-carboxamide]
- LC50 (beet armyworm [1]): > 25 µg/mL
- LC50 (beet armyworm [2]): 10.5 µg/mL (≈ 21.1 µM)

Molecule: O=C(Nc1ccc(C(F)(F)F)cc1)N1CC(c2cncc(Cl)n2)C(c2ccc(F)cc2)=N1 (centres unmarked) [Z, 4-(6-Chloro-2-pyrazinyl)-4,5-dihydro-3-(4-fluorophenyl)-N-(4-trifluoromethylphenyl)-1H-pyrazole-1-carboxamide]
- LC50 (beet armyworm [1]): > 100 µg/mL
- LC50 (beet armyworm [2]): 75.8 µg/mL (≈ 163 µM)
